{
  "source": "patent EP0193257A1",
  "about": "“Control of micro-organisms in water-containing compositions” (NIPA LABORATORIES, LTD., priority 1985, dated 1986)",
  "key": {"[1]": {"test_system": "mixed culture of 7 strains of Gram negative bacteria", "test": "Survivor plate count in shampoo formulation after challenge", "format": "cell-based", "conditions": "shampoo with 0.20% of 30% DCHB in propylene glycol (0.06% active DCHB)", "description": "A shampoo formulation was prepared to the following formula: […]\nVarious additions were made to portions of this shampoo in sterile bottles under aseptic conditions, as follows: • 1. 0.20% of 30% DCHB in propylene glycol (0.06% active DCHB) • 2. 0.20% of 30% DCHB in propylene glycol + 0.05% citric acid • 3. 0.05% citric acid (control 1) • 4. No addition (control 2)\nEach of these systems was inoculated with a mixed culture of 7 strains of Gram negative bacteria, at an initial inocullum level of 9.0x10^7 colony forming units per g. At 30 mins, 1 hour, 2 hours, 6 hours, 24 hours and 7 days after inoculation the total number of survivors in each sample portion were determined by serial dilution and plate counting; with the following results: […]"}, "Acute oral toxicity": {"test": "Acute oral toxicity", "conditions": "rat, in vivo, rats", "text": "It is important that preservatives added to toiletry, household and pharmaceutical products have a low order of toxicity."}, "[2]": {"test_system": "mixed culture of 6 species of Gram negative bacteria", "test": "Survivor plate count in commercial shampoo after challenge", "format": "cell-based", "description": "A sample of a commercial shampoo preparation (without preservative) was divided into three portions and, to a first portion of this shampoo, the following preservative system was added: • 0.3% (w/w) of a 30% w/w solution of DCHB in propylene glycol (resulting in a concentration of 0.09% of active DCHB).\nTo a further portion of the unpreserved shampoo, 0.3% (w/w) propylene glycol alone was added to ensure any observed bactericidal effect was due to DCHB.\n20g portions of the unpreserved shampoo and the shampoo with the above additions were inoculated with 0.4 ml of a mixed culture of 6 species of Gram negative bacteria (including an isolate from a contaminated shampoo) to give an initial inoculum level of 2.14 x 10^7 colony forming units per g.\nThe inoculated samples were mixed by Vortex mixer and stored at room temperature. At regular timed intervals after challenge the total number of survivors in each sample portion were determined by serial dilution and plate counting (Nutrient Agar, 32°C) with the following results: […]"}, "[3]": {"test": "Antimicrobial activity in the presence of proteins", "conditions": "proteins such as serum and soluble collagen"}, "[4]": {"test": "Storage stability in shampoos, aqueous solutions and creams", "format": "physicochemical", "conditions": "0.3% (w/w) in shampoos, 25°C, in the light and in dark, seven months", "description": "Samples of shampoos, aqueous solutions and creams with and without addition of DCHB at 0.3% (w/w) have been stored at 25°C, in the light and in dark, for seven months and have been assessed for visual colour change and for DCHB content, by UV analysis, at regular intervals."}, "[5]": {"conditions": "commercial shampoo + 0.3% of 30% DCHB in propylene glycol (0.09% active DCHB)"}},
  "data": [
    {"compound": "O=Cc1cc(Cl)c(O)c(Cl)c1", "note": "[DCHB, 3,5-Dichloro-4-hydroxybenzaldehyde]", "values": [
      {"measurement": "Mixed culture - colony forming units/g after: 1 hour", "setting": "[1]", "result": "3.0x10^6 colony forming units/g"},
      {"measurement": "Mixed culture - colony forming units/g after: 2 hours", "setting": "[1]", "result": "6.6x10^5 colony forming units/g"},
      {"measurement": "Mixed culture - colony forming units/g after: 6 hours", "setting": "[1]", "result": "7.0x10^5 colony forming units/g"},
      {"measurement": "Mixed culture - colony forming units/g after: 24 hours", "setting": "[1]", "result": "8.4x10^4 colony forming units/g"},
      {"measurement": "Mixed culture - colony forming units/g after: 7 days", "setting": "[1]", "result": 10, "unit": "colony forming units/g"},
      {"measurement": "Mixed culture - colony forming units/g after: 30 mins", "setting": "[1]; initial inoculum 9.0x10^7 colony forming units per g", "result": "3.9x10^6 colony forming units/g"},
      {"measurement": "LD50", "setting": "Acute oral toxicity", "result": "> 5000", "unit": "mg/kg"},
      {"measurement": "Gram negative bacteria - Mixed Culture Colony forming units/g after: 1 day", "setting": "[2]; [5]", "result": "<10", "unit": "Colony forming units/g"},
      {"measurement": "Gram negative bacteria - Mixed Culture Colony forming units/g after: 7 days", "setting": "[2]; [5]", "result": "<10", "unit": "Colony forming units/g"},
      {"measurement": "Gram negative bacteria - Mixed Culture Colony forming units/g after: 14 days", "setting": "[2]; [5]", "result": "<10", "unit": "Colony forming units/g"},
      {"measurement": "Gram negative bacteria - Mixed Culture Colony forming units/g after: 28 days", "setting": "[2]; [5]", "result": "<10", "unit": "Colony forming units/g"},
      {"measurement": "Gram negative bacteria - Mixed Culture Colony forming units/g after: 3 hours", "setting": "[2]; commercial shampoo + 0.3% of 30% DCHB in propylene glycol (0.09% active DCHB), initial inoculum 2.14 x 10^7 colony forming units per g", "result": "9.0x10^6 Colony forming units/g"},
      {"measurement": "bactericidal effect against normally resistant gram negative bacteria", "setting": "[2]; shampoo containing 0.3 % of 30 % DCHB in propylene glycol", "result": "rapid and satisfactory bactericidal effect"},
      {"measurement": "antimicrobial activity in the presence of proteins", "setting": "[3]", "result": "retaining antimicrobial activity"},
      {"measurement": "DCHB content, by UV analysis (UV absorption readings)", "setting": "[4]", "result": "no significant change"},
      {"measurement": "visual colour change", "setting": "[4]", "result": "no colour changes"}
    ]}
  ]
}
